From patent US20190110472A1, “ACTIVE INGREDIENT COMPOSITIONS COMPRISING N-ALKENOYL-N-ALKYLGLUCAMIDES AND THE USE THEREOF” (Clariant International, Ltd., priority 2017, published 2019) come the findings set out here.

In data set [1] the test system is indicator plants. As to the kind of experiment: Plant compatibility after application to indicator plants. The data set is classed as in vivo. The conditions noted are these: concentrations of 0.1, 0.3, 0.8, 1.0, 1.5, 2 and 3 g/L.
The subject of data set [2] is apple leaf cuticles. As to the kind of experiment: Membrane penetration test of metribuzin through isolated apple leaf cuticles. In kind it is in vitro ADME. The conditions noted are these: Sencor 600 SC, metribuzin 2.25 g/L, 10° C./56% rel. air humidity. How it is done: The potential of the test substances, which is independent of the surfactant action, to promote foliar absorption of active agrochemical ingredients was determined in membrane penetration tests with apple leaf cuticles using the example of metribuzin. […] Efforts are therefore being made to find additives that promote wetting but only slightly increase the uptake of the active ingredient, such that only a minimum portion of the active ingredient is taken up into the leaf. The plant cuticle is a lipophilic solubility membrane (lipid membrane) without pores or holes, and the results described are also expected for other nonporous lipophilic solubility membranes with these or other electrolyte active ingredients. The principle of the method has been published (e.g. WO-A-2005/194844; Baur, 1997; Baur, Grayson and Schönherr 1999; Baur, Bodelon and Lowe, 2012), and only the specifics and differences in the method are elucidated hereinafter. The leaf cuticles were enzymatically isolated in the manner described in the literature from apple leaves of orchard trees in a commercial stone fruit growing facility near Frankfurt am Main in 2016. The stomata-free cuticles were first dried under air and then installed into stainless steel diffusion cells. After application to the original upper side of the leaf and evaporation of the test liquid, i.e. of the aqueous preparations of the active ingredients without or with the glucamide-containing spray liquids or comparative compositions, the diffusion cells were transferred into thermostatted blocks and charged with aqueous liquid. The water used to make up the aqueous test liquids was local tap water (of known composition). At regular intervals, aliquot samples were taken and the proportion of active ingredient penetrated was determined by HPLC. During the experiment, the temperature in the system (block, diffusion cells, liquids, etc.) and the air humidity above the spray deposit on the cuticle were known exactly and were monitored. […] In each case, the geometric mean values of the penetration for intact membranes at the mean measurement times are given. According to the variant (active ingredient×test additive/formulation), 7-8 repetitions were set up. The coefficient of variation was below 35%, which is a typical biological variability for penetration for numerous plants (Baur, 1997).

Data set [3] in a line: Droplet size distribution of spray (Malvern Spraytec, ID(3)12002 injector nozzle, 3 bar). The data set is classed as physicochemical. Conditions: summary of Table 4, no tankmix partner. The text has this:
A Malvern Spraytec “real-time spray sizing system” was used to determine the droplet size distribution. For this purpose, the system (STP5311, Malvern Instruments GmbH, Heidelberg, Germany) was installed in a specially constructed spray cabin, with the option of being able to model real spray applications as carried out in practice with freely adjustable pressure for various hydraulic nozzles and freely adjustable distances (nozzle-target surface). The spray cabin can be darkened and all disruptive parameters can be eliminated. For the measurements, the ID(3)12002 (Lechler) injector nozzles were used. The pressure set was varied, and mean pressure was kept constant at 3 bar for the measurements reported hereinafter. The temperature and relative air humidity varied between 21.5° C. and 29° C. and between 33% and 56% respectively. In each test series, tap water was measured as internal standard. […]
As a further measurement parameter, the proportion by volume of the droplets having diameter <210 μm (“Vol 210”) was determined and expressed in relation to the proportion by volume of droplets having diameter <105 μm (“Vol 210 / Vol 105”). In addition, the percentage reduction in the proportion by volume of droplets having diameter <105 μm in the case of use of spray liquids containing the test substances was calculated in comparison to the use of tap water as internal standard (“Red 105”).

Data set [4] in a line: Dynamic surface tension, bubble pressure method (BP2100 tensiometer, Krüss). In kind it is physicochemical. Conditions: for Dynamic surface tension [mN/m] 20 ms: surface age 20 ms; for Dynamic surface tension [mN/m] 50 ms: surface age 50 ms; for Dynamic surface tension [mN/m] 100 ms: surface age 100 ms; for Dynamic surface tension [mN/m] 200 ms: surface age 200 ms. The method, then: Dynamic surface tension was determined via the bubble pressure method (BP2100 tensiometer, Krüss). Given a timespan of relevance for the spray application of agrochemicals in aqueous dilution (called the surface age in the bubble pressure method) of 200 milliseconds (ms), the value for dynamic surface tension in [mN/m] correlates with the adhesion on plants that are difficult to wet, such as barley (cereal). A value of 50 mN/m (at 20-21° C.) with respect to water (72.8 mN/m) results in an improvement in the adhesion from “zero adhesion” (0%) to about 50% (Baur P., Pontzen R.; 2007; Basic features of plant surface wettability and deposit formation and the impact of adjuvant; in R. E. Gaskin ed. Proceedings of the 8th International Symposium on Adjuvants for Agrochemicals; Publisher: International Society for Agrochemical Adjuvants (ISAA), Columbus, Ohio, USA).

The nature of data set [5]: Appearance and stability of spray liquids after 24 h. The data set is classed as physicochemical. The method, then:
The composition of spray liquids A1-A18 is specified hereinafter. These spray liquids are produced by mixing the various test substances in water, and the appearance and stability of the spray liquid were assessed after 24 h.
The inventive alkenoylglucamides (A1 to A6) are self-emulsifying in the spray liquid and form cloudy homogeneous emulsions that are stable over 24 h. By contrast, spray liquids comprising non-inventive saturated alkylglucamides (A7-A13) of similar chain length are not phase-stable and flocculate.

In the case of `CCC=CCCCCCCCC(=O)N(C)CC(O)C(O)C(O)C(O)CO` (stereo not drawn) [Dodec-9-enoyl-N-methylglucamide], the “Plant compatibility (necroses or other symptoms such as leaf curl-up or deformation)” value in data set [1] was “no necroses or other symptoms”. In data set [2] (test substance 0.05 % by wt.), the “Mean penetration for metribuzin after time in % 1 day” value (“Mean penetration … in % 1 day” below) stood at 2.9% and the “Mean penetration for metribuzin after time in % 2 days” value (“Mean penetration … in % 2 days” for short) is given as 4.6%. Besides, in data set [2] (test substance 0.1 % by wt.), the “Mean penetration … in % 1 day” value is recorded as 3.9% and the “Mean penetration … in % 2 days” value amounted to 6.5%. In data set [2] (test substance 0.14 % by wt.), the “Mean penetration … in % 1 day” value came to 5.7% and the “Mean penetration … in % 2 days” value amounted to 8.6%. Further, the “Effect on fine droplet content (in words)” value in data set [3] is recorded as “distinct reduction in the fine droplet content”. The “Lowering of the dynamic surface tension (in words)” value in data set [4] (summary of Table 2) is recorded as “particularly large”. Also, in data set [4] (amount 0.03 % by wt.), the “Dynamic surface tension [mN/m] 20 ms” value came to 70.0 mN/m, the “Dynamic surface tension [mN/m] 50 ms” value is given as 66.1 mN/m, the “Dynamic surface tension [mN/m] 100 ms” value came to 61.9 mN/m and the “Dynamic surface tension [mN/m] 200 ms” value came out at 58.6 mN/m. Moreover, in data set [4] (amount 0.1 % by wt.), the “Dynamic surface tension [mN/m] 20 ms” value is listed as 56.1 mN/m, the “Dynamic surface tension [mN/m] 50 ms” value is given as 47.7 mN/m, the “Dynamic surface tension [mN/m] 100 ms” value was 44.0 mN/m and the “Dynamic surface tension [mN/m] 200 ms” value came out at 40.1 mN/m. In data set [4] (amount 0.3 % by wt.), the “Dynamic surface tension [mN/m] 20 ms” value is listed as 44.5 mN/m, the “Dynamic surface tension [mN/m] 50 ms” value came to 38.5 mN/m, the “Dynamic surface tension [mN/m] 100 ms” value was 36.0 mN/m and the “Dynamic surface tension [mN/m] 200 ms” value stood at 33.4 mN/m.
`CCCCCCCCC(=O)N(C)C[C@H](O)[C@@H](O)[C@H](O)[C@H](O)CO` [N-methyl-N-nonanoylglucamine]: the “Plant compatibility (necroses or other symptoms such as leaf curl-up or deformation)” value in data set [1] is on record as “no necroses or other symptoms”.
Take `C=CCCCCCCCC(=O)N(C)CC(O)C(O)C(O)C(O)CO` (stereo not drawn) [dec-9-enoyl-N-methylglucamide]: in data set [4] (amount 0.06 % by wt.), the “Dynamic surface tension [mN/m] 20 ms” value was found to be 70.2 mN/m, the “Dynamic surface tension [mN/m] 50 ms” value worked out at 68.9 mN/m, the “Dynamic surface tension [mN/m] 100 ms” value was 67.6 mN/m and the “Dynamic surface tension [mN/m] 200 ms” value is 67.4 mN/m. In addition, in data set [4] (amount 0.125 % by wt.), the “Dynamic surface tension [mN/m] 20 ms” value worked out at 66.4 mN/m, the “Dynamic surface tension [mN/m] 50 ms” value is on record as 63.7 mN/m, the “Dynamic surface tension [mN/m] 100 ms” value is on record as 61.8 mN/m and the “Dynamic surface tension [mN/m] 200 ms” value came out at 61.0 mN/m. In data set [4] (amount 0.25 % by wt.), the “Dynamic surface tension [mN/m] 20 ms” value turned out to be 59.7 mN/m, the “Dynamic surface tension [mN/m] 50 ms” value was determined as 56.6 mN/m, the “Dynamic surface tension [mN/m] 100 ms” value worked out at 55.5 mN/m and the “Dynamic surface tension [mN/m] 200 ms” value came out at 54.1 mN/m. For the same compound, the “Water solubility in the spray liquid” value in data set [5] is listed as “completely water-soluble”. In data set [5] (spray liquid in water, assessed after 24 h), the Appearance entry is reported as “clear transparent spray liquid”.
As for `CCCCCCCCCCCC(=O)N(C)CC(O)C(O)C(O)C(O)CO` (stereo not drawn) [dodecanoyl-N-methylglucamide], in data set [4] (amount 0.03 % by wt.), the “Dynamic surface tension [mN/m] 20 ms” value is 70.6 mN/m, the “Dynamic surface tension [mN/m] 50 ms” value was 67.3 mN/m, the “Dynamic surface tension [mN/m] 100 ms” value was 63.0 mN/m and the “Dynamic surface tension [mN/m] 200 ms” value is 57.9 mN/m. Moreover, in data set [4] (amount 0.1 % by wt.), the “Dynamic surface tension [mN/m] 20 ms” value is 70.0 mN/m, the “Dynamic surface tension [mN/m] 50 ms” value stood at 66.8 mN/m, the “Dynamic surface tension [mN/m] 100 ms” value worked out at 60.1 mN/m and the “Dynamic surface tension [mN/m] 200 ms” value is given as 51.4 mN/m. In data set [4] (amount 0.3 % by wt.), the “Dynamic surface tension [mN/m] 20 ms” value was 67.0 mN/m, the “Dynamic surface tension [mN/m] 50 ms” value is reported as 61.9 mN/m, the “Dynamic surface tension [mN/m] 100 ms” value is on record as 58.8 mN/m and the “Dynamic surface tension [mN/m] 200 ms” value amounted to 48.7 mN/m.
